Key:
human renal renin = molecular target: T1, human renal renin (Homo sapiens, UniProt P00797); experiment: In vitro inhibition of human renal renin (angiotensin I formation measured by radioimmunoassay); assay type: biochemical; conditions: human renal renin with human angiotensinogen, 37 degrees C., pH 6.5
T1 construct: human renal renin, free from acid proteolytic activity; from tissue; host or cells: human kidney ('renal')
T1 sequence (P00797 67-406): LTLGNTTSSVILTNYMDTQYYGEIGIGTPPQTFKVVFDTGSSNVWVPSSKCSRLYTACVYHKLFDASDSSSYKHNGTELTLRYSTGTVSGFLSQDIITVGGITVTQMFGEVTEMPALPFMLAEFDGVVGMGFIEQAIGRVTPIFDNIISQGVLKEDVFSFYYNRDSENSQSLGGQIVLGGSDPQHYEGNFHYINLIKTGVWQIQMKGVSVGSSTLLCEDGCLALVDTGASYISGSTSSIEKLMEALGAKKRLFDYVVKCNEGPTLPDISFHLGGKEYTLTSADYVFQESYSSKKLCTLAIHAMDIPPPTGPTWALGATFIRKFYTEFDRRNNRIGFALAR
Experimental: At the end of the incubation, the amount of angiotensin I formed is measured by radioimmunoassay and the molar concentration required to cause 50% inhibition, expressed as the IC50 is calculated .

[1] = Mean arterial blood pressure in salt-depleted dogs after i.v. or p.o. dosing; assay type: in vivo, dog; conditions: salt-depleted male beagle dogs; 10 mg/kg i.v. (in D5W) or 10 mg/kg p.o. (in methylcellulose); FIG. 1A
Experimental: (§1) Male beagle dogs (8-12 kg, Marshall/Hazelton) were converted to a salt-depleted status by dosing on the three consecutive days prior to the experiment with furosemide (Phoenix Pharmaceuticals, 10 mg/kg i.m.) and by placing them on a low sodium diet (approximately 2-5 meq/day; H/D; Hills Pet Products). Prior to the study, each dog was instrumented with an indwelling catheter ana conditioned to stand calmly in a restraining sling for periods of up to 8 hours. On the morning of the experiment, the arteriai catheter was connected to a Sorenson Transpac II® pressure transducer (Abbott Laboratories). For dogs receiving intravenous (i.v.) doses, a catheter (Abbott; 16 ga Venocath) was introduced in a rear leg saphenous vein by venipuncture. For dogs receiving receiving oral (p.o.) doses by garage, an 18 Fr. suction catheter (Mallinckrodt Critical Care) was used. Data samples of systemic hemodynamic variables were acquired by the MI2 computer at 5 minute intervals beginning 90 minutes prior to administration of the test compound and ending 6 hours after dosing. Arterial blood smaples (3.0 ml) to determine plasma drug concentrations and plasma renin activity (PRA) were taken for i.v. doses at -60, -30, 3, 10, 30, 60, 120, 240 and 360 minutes an for p.o. doses at --60, -30, 15, 30, 60, 90, 120, 180 and 360 minutes relative to the time of test compound administration. […]

renin = molecular target: T2, renin (Canis lupus familiaris, UniProt Q6DYE7); experiment: Plasma renin activity (PRA) in salt-depleted dogs after i.v. or p.o. dosing; assay type: in vivo, dog; conditions: salt-depleted male beagle dogs; 10 mg/kg i.v. (in D5W) or 10 mg/kg p.o. (in methylcellulose); FIG. 1B
T2 construct: from tissue; host or cells: circulating plasma renin of salt-depleted beagle dogs (in vivo)
T2 sequence (Q6DYE7 66-403): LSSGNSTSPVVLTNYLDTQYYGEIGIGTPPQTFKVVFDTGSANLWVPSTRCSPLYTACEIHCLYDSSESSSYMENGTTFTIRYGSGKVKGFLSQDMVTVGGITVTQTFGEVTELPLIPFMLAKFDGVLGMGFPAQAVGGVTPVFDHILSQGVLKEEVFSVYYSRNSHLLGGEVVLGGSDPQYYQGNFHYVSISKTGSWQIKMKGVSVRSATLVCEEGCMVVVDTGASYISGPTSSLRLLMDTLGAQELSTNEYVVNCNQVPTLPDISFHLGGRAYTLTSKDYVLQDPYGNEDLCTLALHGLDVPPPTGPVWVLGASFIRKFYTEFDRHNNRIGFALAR
Experimental: as §1

Compound | IC50 (human renal renin) | plasma renin activity (PRA) (renin) | mean arterial pressure (MAP) [1]
CC(C)C[C@H](O)[C@H](O)[C@H](CC1CCCCC1)NC(=O)[C@H](Cc1cscn1)NC(=O)[C@H](Cc1ccccc1)CS(=O)(=O)N1CCN(C)CC1.CS(=O)(=O)O [Example 17B, (2S)-2-Benzyl-3-(1-methyl-piperazin-4-ylsulfonyl) propionyl-(L)-(4-Thiazolyl)Ala Amide of (2S,3R,4S)-2-Amino-1-cyclohexyl-3,4-dihydroxy-6-methylheptane methanesulfonate salt] | – | inhibits renin in vivo | effective for reducing blood pressure
CC(C)C[C@H](O)[C@H](O)[C@H](CC1CCCCC1)NC(=O)[C@H](Cc1cscn1)NC(=O)[C@H](Cc1ccccc1)CS(=O)(=O)N1CCNCC1 [Example 6D, (2S)-2-Benzyl-3-(piperazin-4-ylsulfonyl)propionyl-(L)-(4-Thiazolyl)Ala Amide of (2 S, 3R, 4S)-2-Amin0-1-cyclohexyl-3,4-dihydroxy-6-methylheptane] | 0.33 nM | – | –
CC(C)C[C@H](O)[C@H](O)[C@H](CC1CCCCC1)NC(=O)[C@H](Cc1cscn1)NC(=O)C(Cc1ccccc1)NS(=O)(=O)N1CCN(C)CC1 (stereo partly shown) [Example 13C] | 0.22 nM | – | –
CC(C)C[C@H](O)[C@H](O)[C@H](CC1CCCCC1)NC(=O)[C@H](Cc1cscn1)NC(=O)[C@H](Cc1ccccc1)CS(=O)(=O)N1CC[N+](C)([O-])CC1 [Example 10B, (2S)-2-Benzyl-3-(1-methyl-1-oxo-piperazin-4-ylsulfonyl)propionyl-(L)-(4Thiazolyl)Ala Amide of (2S,3R,4S)-2-Amino-1-cyclohexyl-3,4-dihydroxy-6-methylheptane] | 0.3 nM | – | –

The remaining compounds from weak to strong by IC50 (human renal renin), led by results:

IC50 (human renal renin) | plasma renin activity (PRA) (renin) | Compound | mean arterial pressure (MAP) [1]
0.45 nM | – | CC(C)C[C@H](O)[C@H](O)[C@H](CC1CCCCC1)NC(=O)[C@H](Cc1cscn1)N(C)C(=O)C(CCc1ccccc1)NS(=O)(=O)N1CCN(C)CC1 (stereo partly drawn) [Example 12F, (4-Methylpiperazin-1-yl) sulfonyl-(Phenylmethyl)alanine-N-Methyl-3-(4-thiazolyl)-L-alanine Amide of (2S,3R,4S)-2-Amino-1-cyclohexyl-3,4-dihydroxy-6-methylheptane] | –
0.28 nM | – | CC(C)C[C@H](O)[C@H](O)[C@H](CC1CCCCC1)NC(=O)[C@H](Cc1cscn1)NC(=O)[C@H](Cc1ccccc1)CS(=O)(=O)N1CCNC(=O)C1 [Example 11F] | –
